The record followed here is patent US20140221225A1, “METHOD FOR OBTAINING A MULTICELLULAR SPHEROID” (Universiteit Leiden, priority 2011, published 2014).

Entries after “also recorded” stand apart in the source; their conditions may differ.

The test system of assay [1] is 4T1 cells. Briefly: Proof-of-principle drug screen on automatically injected 4T1 multicellular spheroids in collagen gel, 96 well plate. Type of assay: cell-based, mouse. The following applies: for Feret's Diameter (longest distance between any two points along the selection boundary, maximum caliper), averages / Circularity (4π*area/perimeter^2, 1 = perfect circle), averages / Invasion area (area day 4/area day 0), averages: 1:1000 dilution (10 μM); for Feret's Diameter (longest distance between any two points along the selection boundary, maximum caliper), averages / Circularity (4π*area/perimeter^2, 1 = perfect circle), averages: automated analysis of fluorescent actin staining at day 4; for Feret's Diameter (longest distance between any two points along the selection boundary, maximum caliper), averages: Figure 7B, ctrl 0.67, unit assumed; for Circularity (4π*area/perimeter^2, 1 = perfect circle), averages: Figure 7C, ctrl 0.15; for Invasion area (area day 4/area day 0), averages: manual from DIC images at day 0 and day 4, Figure 7A, ctrl 25.88; for Cell migration from 4T1 spheroids: visual inspection / actin images after 4 days, 4, 10, 20 μM. How it is done:
(§1) Cell suspensions derived from trypsin-detached adherent cultures or from collagenase-treated biopsies were filtered to remove clumps, centrifuged at 1000 rpm for 5 minutes, and washed twice with PBS. ˜7×10^6 cells were re-suspended in 30 μl PBS containing 2% polyvinylpyrrolidone (PVP; Sigma-Aldrich). The PVP/cell suspension was loaded into a beveled pulled glass needle (Eppendorf CustomTip Type III, oD [μm] 60, Front surface 40, Flexibility: rigid).
A glass-bottom 96 well plate (Greiner) containing 60 μl solidified collagen gel per well was placed in a motorized stage (MTmot 200×100 MR, Märzhäuser) connected to a controller (Tango, Märzhäuser). A motorized micro-manipulator (Injectman II, Eppendorf) was positioned above the stage and connected to a pump (Femtojet Express, Eppendorf) featuring an external compressor (lubricated compressor, model 3-4, JUN-AIR). A firewire camera (DFK41BF02.H, The Imaging Source) equipped with an 8× macro lens (MR8/O, The Imaging Source) was placed beneath the stage for calibration and imaging. All components were connected to the controlling computer (Ubuntu AMD64). A multi-threaded control program was written in Python using PySerial and wxPython. Coriander software (http://damien.douxchamps.net/ieee1394/coriander) was used for imaging.
After the program was calibrated for the 96 well plate the camera height was adjusted to focus on the bottom of the 96 well plate. The plate was then removed for needle calibration: the injection needle was fixed in the Injectman and moved, using the Injectman controller, into the center of the image. The injection height was set to 200 µm above the bottom of the (virtual) plate. After the needle was moved up, the plate was placed back in position and the upper left well was used for multiple test injections to adjust pump pressure and injection time for optimization of the droplet size (300 µm diameter) using video inspection. Subsequently, using a pre-defined macro defining x-y coordinates and number of injections per well, all wells were injected using the same pressure and injection time.
Differential interference contrast (DIC) images were captured using a charged coupled device (CCD) camera with NIS Image Pro software at 10× dry objective. Quantification of spheroid invasion area was analyzed from DIC images using ImageJ. […] One-way ANOVA was performed to test the significance of the data (p<0.05). The data are presented and plotted as average and standard error of the mean; tables are available in the supplement.
For automated imaging, wells containing gel-embedded spheroids were treated with a fixation and staining cocktail containing 3.7% formaldehyde, 0.2% Triton X-100 (Sigma) and 0.1 μM rhodamine phalloidin (Sigma) for 3 hrs. Wells were washed extensively with PBS and plates were imaged on a Becton Dickinson Pathway 855 using a 4× lens. A montage of 12 frames was made for each Z plane, with a total of 24 Z planes at an interval of 50 μm. Image stacks were converted into 2D maximum fluorescence intensity projections using ImagePro 7.0. MS were then digitally segmented using ImageJ to identify the outline of individual spheroids and multiple parameters were measured, including spheroid Feret's diameter, roundness, and number of spheroids scored in each well.
LY-294002 (phosphatidylinositol 3-kinase), JSI-124-cucurbitacin (STAT3/Jak2), and NSC23766 (Rac1) were purchased from Merck/CalBiochem. PP2 (Src) and ML-7 (MLC kinase) were purchased from ENZO. Y-27632 (Rock) and SB-431542 (TGFb) were purchased from BioMol Tocris. AG1478 (EGFR) was purchased from BioMol and AG-82 (general protein tyrosine kinases) was purchased from Calbiochem. Cell migration was analyzed in the absence and presence of inhibitors for 4 days.
A proof of principle drug screen was performed to test the applicability of this procedure to automated high-throughput drug screening assays (HTS). […]

Assay [2] has as its system Chondrosarcoma. Briefly: Inhibitor treatment of spheroids from fresh human chondrosarcoma biopsy in collagen gel. Particulars: lowest collagen concentration 1.0 mg/ml; bright-field images after 6 days; treatment from 1 day post-injection. Type of assay: cell-based.
Excerpt: (§2) FIG. 9: Spheroids obtained from two fresh human biopsies. […] The lowest concentration, row G, triggers the largest migration in Chondrosarcoma as well (G5) while the type of migration remains the same between the row F and row G (see F4, G5). […] Scale=100 μm.
(§3) Human biopsy material was obtained from surplus material from patients that were surgically treated for chondrosarcoma or osteosarcoma. Tumor cell suspensions were derived from biopsies by overnight collagenase treatment at room temperature.
as §1
(§4) Next, cell suspensions were derived from freshly isolated human biopsies of osteosarcoma and chondrosarcoma and injected in gels containing three different collagen concentrations. MS readily formed from these human biopsies and survival and migration could be studied for up to 1 week with the two tumor types showing distinct migratory behavior (FIG. 9). […] MS were treated with the range of compounds described above starting 1 day post-injection. […] Thus, the automated MS injection methodology has the potential to be used for large scale screening for the drug sensitivity spectrum of tumor cells freshly isolated from individual patients.

Assay [3] has as its system Osteosarcoma. Briefly: Inhibitor treatment of spheroids from fresh human osteosarcoma biopsy in collagen gel. Type of assay: cell-based. Particulars: lowest collagen concentration 1.0 mg/ml; bright-field images after 6 days; treatment from 1 day post-injection.
Excerpt: as §2, §3, §1, §4

In the case of `NC(=O)c1ccc(-c2nc(-c3ccc4c(c3)OCO4)c(-c3ccccn3)[nH]2)cc1` [SB-431542], in assay [1], the Feret's Diameter (longest distance between any two points along the selection boundary, maximum caliper), averages was found to be 0.46 mm; the “Circularity (4π*area/perimeter^2, 1 = perfect circle), averages” value is given as 0.22; the “Invasion area (area day 4/area day 0), averages” value (shortened to “Invasion area”) worked out at 16.
Consider `CC(C)(C)n1nc(-c2ccc(Cl)cc2)c2c(N)ncnc21` [PP2], for which the “Migration of Chondrosarcoma spheroids” value in assay [2] is on record as “reduces migration; also recorded: effectively inhibited migration”. Besides, in assay [1], the Feret's Diameter (longest distance between any two points along the selection boundary, maximum caliper), averages was 0.55 mm; the “Circularity (4π*area/perimeter^2, 1 = perfect circle), averages” value came out at 0.19; the “Invasion area” value came to 22.48. The “Migration of Osteosarcoma spheroids” value in assay [3] is given as “block migration; also recorded: effectively inhibited migration”.
As to `O=S(=O)(c1cccc2c(I)cccc12)N1CCCNCC1` [ML-7], the “Migration of Chondrosarcoma spheroids” value in assay [2] is “block migration completely; also recorded: effectively inhibited migration”. Besides, in assay [1], the “Invasion area” value worked out at 1.09 and the “Cell migration from 4T1 spheroids” value is listed as “Effects on cell migration could be clearly observed”. In assay [1] (rhodamine phalloidin actin fluorescence, 4 days treatment), the “Cell survival in 4T1 spheroids” value is given as “did not survive the treatment; also recorded: affected cell survival”. For the same compound, the “Migration of Osteosarcoma spheroids” value in assay [3] is reported as “block migration; also recorded: effectively inhibited migration”.
Consider `C[C@@H](N)[C@H]1CC[C@H](C(=O)Nc2ccncc2)CC1` [Y-27632], for which, in assay [2], the “Migration of Chondrosarcoma spheroids” value is on record as “stimulates migration”. Besides, in assay [1], the Feret's Diameter (longest distance between any two points along the selection boundary, maximum caliper), averages is 0.41 mm; the “Circularity (4π*area/perimeter^2, 1 = perfect circle), averages” value is 0.35; the “Invasion area” value is reported as 16.86. Moreover, in assay [3], the “Migration of Osteosarcoma spheroids” value is “stimulates migration”.
On to `O=c1cc(N2CCOCC2)oc2c(-c3ccccc3)cccc12` [LY-294002], for which, in assay [1], the Feret's Diameter (longest distance between any two points along the selection boundary, maximum caliper), averages was found to be 0.38 mm; the “Circularity (4π*area/perimeter^2, 1 = perfect circle), averages” value came out at 0.26; the “Invasion area” value amounted to 14.91.
In the same order, the values of `CCN(CC)CCCC(C)Nc1nc(C)cc(Nc2ccc3nc(C)cc(N)c3c2)n1` (centres unmarked) [NSC23766] are 0.37 mm, 0.29 and 17.51.
Regarding `CC(C)(O)/C=C/C(=O)[C@](C)(O)[C@H]1[C@H](O)C[C@@]2(C)[C@@H]3CC=C4[C@@H](C=C(O)C(=O)C4(C)C)[C@]3(C)C(=O)C[C@]12C` [JSI-124], the “Migration of Chondrosarcoma spheroids” value in assay [2] is “block migration completely; also recorded: effectively inhibited migration”. Moreover, in assay [1], the Feret's Diameter (longest distance between any two points along the selection boundary, maximum caliper), averages stood at 0.23 mm; the “Circularity (4π*area/perimeter^2, 1 = perfect circle), averages” value turned out to be 0.78; the “Invasion area” value turned out to be 1.01; the “Cell migration from 4T1 spheroids” value was “Effects on cell migration could be clearly observed; also recorded: blocked migration, but left the MS intact”. Moreover, the “Migration of Osteosarcoma spheroids” value in assay [3] is “block migration; also recorded: effectively inhibited migration”.
Consider `N#CC(C#N)=Cc1cc(O)c(O)c(O)c1` [AG-82], for which, in assay [1], the Feret's Diameter (longest distance between any two points along the selection boundary, maximum caliper), averages worked out at 0.46 mm; the “Circularity (4π*area/perimeter^2, 1 = perfect circle), averages” value was 0.24; the “Invasion area” value was found to be 20.96.
Regarding `COc1cc2ncnc(Nc3cccc(Cl)c3)c2cc1OC` [AG1478], the “Migration of Chondrosarcoma spheroids” value in assay [2] is “block migration completely; also recorded: effectively inhibited migration”. In assay [1], the Feret's Diameter (longest distance between any two points along the selection boundary, maximum caliper), averages was found to be 0.56 mm; the “Circularity (4π*area/perimeter^2, 1 = perfect circle), averages” value was 0.19; the “Invasion area” value is listed as 25.75. In addition, the “Migration of Osteosarcoma spheroids” value in assay [3] is “block migration; also recorded: effectively inhibited migration”.
